According to US8450479B2, “3-substituted-4-oxo-3,4-dihydro-imidazo[5,1-d][1,2,3,5-tetrazine-8-carboxylic acid amides and their use” (Pharminox Limited, priority 2007, dated 2013):
Where “and” joins values, the source holds several entries; their conditions need not be identical. Equal values may be shown once. Read-outs that look alike come from different tables or passages of the source.

Assays:
Assay type in all cases: cell-based
[1] = tested on: Colon HCT116 (MMR mutated); experiment: MTT assay for 7-day toxicity assay
Summary of the method: (§1)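 Cells seeded at 400 cells/well, attached overnight, then exposed to compound at 0.5–1000 μM final for 7 days at 37 °C, 5% CO2. Viability read by MTT, with a day-0 plate fixed at drug addition as reference.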

[2] = tested on: Normal Human Fetal Lung Fibroblast MRC-5; experiment: MTT assay for 7-day toxicity assay
Summary of the method: as §1

Colon DLD1 = experiment: MTT assay for 7-day toxicity assay
Summary of the method: as §1

[3] = tested on: Colon HT29 (MMR proficient); experiment: MTT assay for 7-day toxicity assay
Summary of the method: as §1

[4] = tested on: glioma MGMT− and MGMT+ cell lines; experiment: MTT assay, glioma lines as a whole; conditions: glioma MGMT− and MGMT+ cell lines
Description: (§2) This assay was first described in Mosmann, T., 1983, “Rapid colorimetric assay for cellular growth and survival: Application to proliferation and cytotoxicity assays”, Journal of Immunological Methods, Vol. 65, Nos. 1-2, pp. 55-63.
(§3) Glioma cell lines, SNB19 and U373, both MGMT transfected (i.e., SNB19M and U373M) and vector controls (i.e., SNB19V and U373V); colorectal carcinoma cell lines, HCT116, HT29, and DLD1; melanoma cell line, SKMEL-28; breast cell line, MCF-7; and normal human fetal lung fibroblast cell line, MRC-5; were harvested at 60-80% confluence—during the logarithmic phase of growth.
(§4) Following harvesting, cells in suspension were gently syringed through a 23 gauge needle to obtain a near-single cell suspension. The desired cell seeding densities were used and added into 96-well plates in 180 μL culture medium if only one test compound was to be added, or 160 μL if two test compounds were to be added in combination, which were allowed to attach at 37° C. (5% CO2) overnight. For the 7 day assay, the cell seeding density for different cell lines was as follows: SNB19V, SNB19M: 650 cells/well; U373V, U373M: 650 cells/well; SNB19VR, U373VR: 650 cells/well; HCT116, DLD-1, SKMEL-28, MRC-5, MCF-7: 400 cells/well.
(§5) The two peripheral lanes were used as blank wells (cell free) and filled with 200 μL of medium in order to minimise medium evaporation from the plate. A separate time zero (T0) plate was set up alongside other plates. Serial dilutions in tissue culture medium of a 100 mM stock of test compound in DMSO were prepared immediately before each assay to ten times the final concentrations required, and then 20 μL was added to each well (200 μL total media per well) to achieve final concentrations of 0.5 μM, 1 μM, 5 μM, 10 μM, 50 μM, 100 μM, 500 μM, and 1000 μM. A minimum of four wells received the same test compound concentration. To control wells, including those in the T0 plate, 20 μL of medium was added. Previous assays had been carried out to verify that cell viability was not affected by the amount of DMSO added into the test compound-treated wells. A separate plate treated in the same way, but free of test compound, was used as a measure of cell viability at the time of drug addition (day 0).
(§6) After incubation at 37° C., 5% CO2 for 7 days (or immediately for the day 0 plate), cell viability was quantified using the MTT assay. 50 μL of sterile filtered MIT (3-(4,5-dimethylthiazol-2-yl)-2,5-diphenyltetrazolium bromide) (2 mg/mL in phosphate buffered saline) were added to each well (final concentration 0.4 mg/mL) and the plates were re-incubated for 4 hours to allow metabolic conversion of MTT by dehydrogenases in viable cells to insoluble formazan crystals. The medium and any unconverted MTT was aspirated, 150 μL of DMSO was added to each well, and the plates were shaken on a plate shaker (Stuart Scientific 503) to ensure complete formazan solubilisation.
(§7) The intensity of absorbance is directly proportional to cell viability. A linear relationship exists between cell number and the amount of formazan and so the mean absorbance determined for each well of the same concentration can be used as a quantitative measure of viable cells compared to the controls. A graph of absorbance against drug concentration was plotted and the test compound concentration (GI50) causing 50% inhibition of control cell growth (absorbance increase from day 0) was calculated by interpolation.

[5] = tested on: range of other cell lines (e.g., colon, melanoma); experiment: MTT assay, other cell lines; conditions: for activity in words: other lines (e.g., colon, melanoma)
Description: as §2, §3, §4, §5, §6, §7

[6] = Colon HCT116 (MMR mutated), 7-day MTT, single determinations, read-out: GI50
[7] = Homo sapiens, HCT-116, 168 h, Colon HCT116 (MMR mutated), 7-day MTT, single determinations, read-out: GI50
[8] = Homo sapiens, MRC5, 168 h, Normal Human Fetal Lung Fibroblast MRC-5, 7-day MTT, single determinations, read-out: GI50
[9] = Homo sapiens, DLD-1, 168 h, Colon DLD1, 7-day MTT, single determinations, read-out: GI50
[10] = Normal Human Fetal Lung Fibroblast MRC-5, 7-day MTT, single determinations, read-out: GI50
[11] = Homo sapiens, HT-29, 168 h, Colon HT29 (MMR proficient), 7-day MTT, single determinations, read-out: GI50
[12] = Colon HCT116 (MMR mutated), read-out: GI50
[13] = Homo sapiens, HCT-116, Colon HCT116 (MMR mutated), read-out: GI50
[14] = Homo sapiens, MRC5, Normal Human Fetal Lung Fibroblast MRC-5, read-out: GI50
[15] = Normal Human Fetal Lung Fibroblast MRC-5, read-out: GI50
[16] = Colon HT29 (MMR proficient), read-out: GI50
[17] = Homo sapiens, HT-29, Colon HT29 (MMR proficient), read-out: GI50
[18] = Homo sapiens, DLD-1, Colon DLD1, read-out: GI50

`C[C@H](c1ccccc1)n1nnc2c(C(N)=O)ncn2c1=O` [BB-001, (R)-3-(-1-Phenylethyl)-8-carbamoylimidazotetrazin-4-one] gave a GI50 [1, 6] of 194 µM, a GI50 [1, 7] of 151 µM and a GI50 [2, 8] of 174 µM. For the same compound, the GI50 (Colon DLD1; [9]) was 80.6 µM.
`C#CCn1nnc2c(C(N)=O)ncn2c1=O` [EE-001, 3-Propargyl-8-carbamoylimidazotetrazin-4-one] was tested, and the GI50 [1, 7] was 59.9 µM, the GI50 [2, 8] was 56.1 µM and the GI50 [2, 10] was 66.6 µM. The GI50 [3, 11] was 21.1 µM, the GI50 (Colon DLD1; [9]) was 29.9 µM and the activity in words [4] was “more potent than TMZ”. The activity in words [5] was “more potent than TMZ”.
`CCOC(=O)Cn1nnc2c(C(N)=O)ncn2c1=O` [PX-016] showed a GI50 [1, 6] of 66 µM, a GI50 [1, 7] of 65.2 µM and a GI50 [2, 8] of 109 µM. For the same compound, the GI50 [2, 10] was 197 µM, the GI50 (Colon DLD1; [9]) was 61.1 µM and the activity in words [4] was “surprising efficacy”.
`COCn1nnc2c(C(N)=O)ncn2c1=O` [PX-020] was tested, and the GI50 [1, 12] was 47.4 µM and 52.4 µM and 56.1 µM and 29.5 µM, the GI50 [1, 13] was 57.4 µM and the GI50 [2, 14] was 61.6 µM. For the same compound, the GI50 [2, 15] was 51.5 µM and 74.1 µM, the GI50 [3, 16] was 49.8 µM and the GI50 [3, 17] was 59.4 µM. The GI50 (Colon DLD1; [18]) was 55.4 µM and the activity in words [4] was “surprising efficacious”.
With `C[Si](C)(C)CCOCn1nnc2c(C(N)=O)ncn2c1=O` [PX-021] the GI50 [1, 12] was 39.8 µM and 36.6 µM and 40.1 µM, the GI50 [1, 13] was 33.6 µM and the GI50 [2, 14] was 48.6 µM. It also gave a GI50 [2, 15] of 65.4 µM, a GI50 [3, 16] of 55.8 µM and a GI50 [3, 17] of 58.5 µM. For the same compound, the GI50 (Colon DLD1; [18]) was 53.7 µM and the activity in words [4] was “surprising efficacious”.
`NC(=O)c1ncn2c(=O)n(CCl)nnc12` [PX-030] gave a GI50 [1, 13] of 22.3 µM, a GI50 [2, 14] of 50.9 µM and a GI50 [2, 15] of 67.2 µM.
For `Cn1nnc2c(C(N)=O)ncn2c1=O` [TMZ, 3-Methyl-4-oxo-3,4-dihydro-imidazo[5,1-d][1,2,3,5]tetrazine-8-carboxylic acid amide, reference compound], the GI50 [1, 6] was 570 µM and 594 µM, the GI50 [1, 7] was 607 µM and the GI50 ([1]; Homo sapiens, HCT-116, Colon HCT116 (MMR mutated), average of Table 1, read-out: TMZ GI50 Average) was 591 µM. For the same compound, the GI50 [1, 13] was 591 µM, the GI50 [2, 8] was 441 µM and the GI50 ([2]; Homo sapiens, MRC5, Normal Human Fetal Lung Fibroblast MRC-5, average of Table 1, read-out: TMZ GI50 Average) was 449 µM. For the same compound, the GI50 [2, 14] was 449 µM, the GI50 [2, 10] was 458 µM and the GI50 ([3]; Colon HT29 (MMR proficient), 7-day MTT, single determinations, read-out: GI50) was 578 µM. For the same compound, the GI50 [3, 11] was 702 µM, the GI50 ([3]; Homo sapiens, HT-29, Colon HT29 (MMR proficient), average of Table 1, read-out: TMZ GI50 Average) was 640 µM and the GI50 [3, 17] was 640 µM. The GI50 (Colon DLD1; [9]) was 435 µM, the GI50 (Colon DLD1; [18]) was 435 µM and the GI50 (Colon DLD1; Homo sapiens, DLD-1, Colon DLD1, average of Table 1, read-out: TMZ GI50 Average) was 435 µM. The activity in words [4] was “demonstrably more active in the glioma lines which are MGMT−” and the GI50 ([5]; range of other cell lines (Table 1)) was 200 to 700 µM.
For `C[S+]([O-])Cn1nnc2c(C(N)=O)ncn2c1=O` (stereo not shown) [UU-003, 3-Methanesulfinylmethyl-4-oxo-3,4-dihydro-imidazo[5,1-d][1,2,3,5]tetrazine-8-carboxylic acid amide], the GI50 [1, 12] was 5.3 µM and 5 µM, the GI50 [1, 13] was 6.7 µM and the GI50 [2, 14] was 56.8 µM. The GI50 [2, 15] was 55.2 µM and 52.1 µM, the GI50 (Colon DLD1; Colon DLD1, read-out: GI50) was 9.3 µM and the GI50 (Colon DLD1; [18]) was 8.2 µM. For the same compound, the activity in words [4] was “surprising efficacy” and the activity in words [5] was “surprising efficacy”.
